The text below walks through data of PubChem BioAssay (NCI).

Among the test systems are 786-0 renal; HL-60(TB) leukemia; KM12 colon; MCF7 breast; K-562 leukemia; COLO 205 colon; NCI-H23 lung; T-47D breast.
Holding throughout (assay): DTP human tumour cell line panel, 48 h

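Briefly, cells in 96-well plates were exposed to five compound concentrations for 48 h, and endpoints were estimated by linear interpolation. GI50 = concentration required for 50% inhibition of growth. TGI: concentration producing complete growth inhibition.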

For orientation: GI50 means the concentration that inhibits growth by half. As usually defined, the TGI is the concentration giving total growth inhibition. Low readings indicate greater sensitivity of the cells, high ones lower sensitivity of the cells. Take `O=C(NNc1ccc(F)cc1)C1CCC(CNS(=O)(=O)c2ccc(Cl)c(Cl)c2)CC1` (centres undefined): the GI50 in the experiment on 786-0 renal is 17.9 µM; with HL-60(TB) leukemia, 1.82 µM; in the experiment with KM12 colon, 1.38 µM; with MCF7 breast, 7.73 µM; with K-562 leukemia, 1.71 µM; in the experiment on COLO 205 colon it was 14.4 µM. Also, the TGI with 786-0 renal was more than 50 µM; with HL-60(TB) leukemia, 9.57 µM; in the experiment on KM12 colon, 42.6 µM; in the experiment with MCF7 breast it was more than 50 µM; in the experiment on K-562 leukemia, more than 50 µM; in the experiment with COLO 205 colon, more than 50 µM.
Turning to `COc1cc(/C=C2\Oc3cc(OCCCN4CCCC4)ccc3C2=O)cc(OC)c1`, the GI50 with 786-0 renal was 3.86 µM; in the experiment with NCI-H23 lung it was 4.75 µM; in the experiment on T-47D breast, 1.93 µM; in the experiment with HL-60(TB) leukemia, 2.6 µM; in the experiment on KM12 colon, 4.82 µM; in the experiment with MCF7 breast it was 2.94 µM. Besides, the GI50 in the experiment with K-562 leukemia was 2.3 µM; with COLO 205 colon, 2.58 µM. The TGI with 786-0 renal was 14.5 µM; in the experiment with NCI-H23 lung, 18.7 µM; in the experiment on T-47D breast, 4.51 µM; in the experiment on HL-60(TB) leukemia, 6.66 µM; with KM12 colon, 17.7 µM; in the experiment with MCF7 breast it was 13.4 µM. Also, the TGI was 7.69 µM in the experiment with K-562 leukemia and 8.3 µM in the experiment on COLO 205 colon.
Turning to `CCCCCCCCCCC/C=C\C[C@H](O)C/C=C1/C(=O)C=C[C@@H]1C/C=C\CCCC(=O)OC`, the GI50 in the experiment with 786-0 renal is 1.03 µM; with NCI-H23 lung, 0.687 µM; in the experiment on T-47D breast, 0.796 µM; in the experiment on HL-60(TB) leukemia it was 0.835 µM; in the experiment with KM12 colon, 0.852 µM; in the experiment with MCF7 breast it was 0.754 µM. In addition, the GI50 in the experiment on K-562 leukemia is 0.898 µM; in the experiment with COLO 205 colon it was 1.21 µM. The TGI in the experiment with 786-0 renal was 3.98 µM; with NCI-H23 lung, 1.58 µM; in the experiment on T-47D breast it was 3.44 µM; in the experiment on HL-60(TB) leukemia it was 2.68 µM; with KM12 colon it was 2.45 µM; in the experiment with MCF7 breast it was 4.08 µM. Moreover, the TGI in the experiment with K-562 leukemia stood at 3.2 µM; in the experiment on COLO 205 colon, 3.83 µM.
As for `O=C(O)C1C2C=CC(C2)C1C(=O)O` (centres undefined), the GI50 in the experiment on 786-0 renal, in the experiment on T-47D breast, with HL-60(TB) leukemia, in the experiment with KM12 colon, in the experiment with MCF7 breast and in the experiment on K-562 leukemia was more than 100 µM in each case. Moreover, the GI50 in the experiment on COLO 205 colon was more than 100 µM. Besides, the total growth inhibition concentration (TGI) with 786-0 renal, with T-47D breast, in the experiment with HL-60(TB) leukemia, in the experiment with KM12 colon, in the experiment with MCF7 breast and in the experiment on K-562 leukemia was more than 100 µM each time. Further, in the experiment on COLO 205 colon, the TGI was more than 100 µM.
Consider `CSCC[C@H](NC(=O)[C@H](CC(C)C)NC(=O)[C@@H](Cc1ccccc1)NC(=O)CNC(=O)[C@@H](NC(=O)[C@H](C)NC(=O)[C@H](Cc1c[nH]c2ccccc12)NC(=O)[C@H](CCC(N)=O)NC(=O)[C@H](N)CC(N)=O)C(C)C)C(N)=O`, for which the TGI in the experiment on 786-0 renal, with NCI-H23 lung, in the experiment on T-47D breast, in the experiment on HL-60(TB) leukemia, in the experiment with KM12 colon and with MCF7 breast was more than 12.5 µM throughout. Also, the TGI with K-562 leukemia and in the experiment with COLO 205 colon was more than 12.5 µM each time.
In the case of `O=S1(=O)NC2CCC3NS(=O)(=O)NC4CCC(N1)N4S(=O)(=O)N23` (centres undefined), the TGI with 786-0 renal, in the experiment on NCI-H23 lung, in the experiment on T-47D breast, in the experiment on HL-60(TB) leukemia, with KM12 colon and in the experiment with MCF7 breast was more than 100 µM throughout. Moreover, the TGI with K-562 leukemia and in the experiment with COLO 205 colon was more than 100 µM each time.
For the molecule `Cn1cc(-c2csc(-c3cn(CCCCN4CCCCC4)c4ccc(F)cc34)n2)c2cccnc21`, the GI50 is 1.65 µM with 786-0 renal, 1.69 µM in the experiment on NCI-H23 lung and 15.7 µM with T-47D breast. The TGI is 3.02 µM in the experiment on 786-0 renal, 3.2 µM in the experiment on NCI-H23 lung and 41.4 µM with T-47D breast.
Turning to `CC(C)(CCN=C(N)Nc1ccccn1)c1ccc(C(F)(F)F)cc1`, the GI50 with 786-0 renal is 13.3 µM; in the experiment on NCI-H23 lung, 12.7 µM; in the experiment on T-47D breast, 11.1 µM; in the experiment with HL-60(TB) leukemia it was 17.1 µM; in the experiment with KM12 colon, 15.8 µM; in the experiment on MCF7 breast, 12.2 µM. The GI50 in the experiment with COLO 205 colon is 13.3 µM. Also, the TGI with 786-0 renal amounted to 28.2 µM; in the experiment with NCI-H23 lung it was 27.6 µM; in the experiment on T-47D breast it was 28.5 µM; in the experiment with HL-60(TB) leukemia it was 36 µM; in the experiment on KM12 colon, 30.9 µM; in the experiment on MCF7 breast it was 27.4 µM. For the same molecule, the total growth inhibition concentration (TGI) in the experiment on COLO 205 colon was found to be 28.1 µM.
Turning to `Cn1c(=O)c2ccc(-c3ccc(Br)cc3)nc2n(C)c1=O`, the TGI with 786-0 renal, in the experiment with NCI-H23 lung, in the experiment on HL-60(TB) leukemia, in the experiment with KM12 colon, in the experiment with K-562 leukemia and in the experiment on COLO 205 colon was more than 100 µM each time.
For the molecule `COc1ccc(-c2nc(Nc3ccc(-c4nc5ccccc5[nH]4)cc3)nc(N3CCOCC3)n2)cc1`, the GI50 was 1.44 µM in the experiment on 786-0 renal; 2.57 µM with NCI-H23 lung; 1.94 µM with HL-60(TB) leukemia; 2.06 µM in the experiment on KM12 colon; 2.59 µM in the experiment with MCF7 breast; 1.92 µM in the experiment with COLO 205 colon. In addition, the TGI with 786-0 renal is 3.23 µM; in the experiment on NCI-H23 lung, 9.9 µM; with HL-60(TB) leukemia it was 5.67 µM; in the experiment on KM12 colon, 5.69 µM; in the experiment with MCF7 breast it was more than 100 µM; with COLO 205 colon it was 4.21 µM.
`c1ccc(CN2CCC3(CC2)SSC2(CCN(Cc4ccccc4)CC2)SS3)cc1`: the TGI in the experiment on 786-0 renal, in the experiment with NCI-H23 lung, with T-47D breast, in the experiment with KM12 colon, with MCF7 breast and with K-562 leukemia was more than 100 µM throughout. Moreover, the TGI with COLO 205 colon is more than 100 µM.
On to `COC(=O)c1ccc2c(c1)C(=O)c1c-2n(C)c(=O)c2cc(OC)c(OC)cc12`, for which the GI50 is 21.8 µM in the experiment with 786-0 renal; more than 50 µM in the experiment with NCI-H23 lung; more than 50 µM in the experiment with T-47D breast; more than 50 µM with KM12 colon; more than 50 µM with MCF7 breast; more than 50 µM in the experiment with K-562 leukemia. In addition, the GI50 in the experiment with COLO 205 colon is more than 50 µM. Besides, the TGI in the experiment on 786-0 renal, in the experiment with NCI-H23 lung, in the experiment on T-47D breast, with KM12 colon, in the experiment on MCF7 breast and with K-562 leukemia was more than 50 µM each time. The molecule further had a TGI with COLO 205 colon of more than 50 µM.
As to `O=c1c2cccc(F)c2sc2c(N3CCNCC3)nc3ccccc3c12`, the GI50 with 786-0 renal was 1.74 µM; in the experiment with NCI-H23 lung, 1.57 µM; in the experiment on T-47D breast, 1.67 µM; in the experiment on HL-60(TB) leukemia it was 1.76 µM; in the experiment with KM12 colon, 1.65 µM; in the experiment on MCF7 breast, 1.17 µM. Also, the GI50 in the experiment with COLO 205 colon is 1.43 µM. Moreover, the concentration for total growth inhibition (TGI) worked out at 3.28 µM with 786-0 renal; 3.1 µM with NCI-H23 lung; 3.59 µM with T-47D breast; 3.44 µM in the experiment with HL-60(TB) leukemia; 3.17 µM in the experiment on KM12 colon; 2.66 µM in the experiment on MCF7 breast. In the experiment on COLO 205 colon, this molecule gave a concentration for total growth inhibition (TGI) of 3.17 µM.
With `O=C1C(Nc2ccc(Br)cc2)=C(I)C(=O)c2ncccc21`, the GI50 with 786-0 renal is 0.905 µM; in the experiment with NCI-H23 lung, 0.829 µM; with T-47D breast, 0.954 µM; in the experiment with HL-60(TB) leukemia it was 0.96 µM; in the experiment on KM12 colon it was 2.05 µM; in the experiment on K-562 leukemia, 0.499 µM. Further, the GI50 in the experiment with COLO 205 colon was 1.19 µM. For the same molecule, the TGI is 2.21 µM with 786-0 renal; 2.14 µM in the experiment with NCI-H23 lung; 2.24 µM with T-47D breast; 2.07 µM in the experiment on HL-60(TB) leukemia; 8.41 µM in the experiment with KM12 colon; 3.61 µM in the experiment with K-562 leukemia. In the experiment with COLO 205 colon, this molecule yielded a TGI of 3.49 µM.
Regarding `CCC(CCC(C)C1CCC2C3CC=C4CC(OC5OC(CO)C(O)C(O)C5O)CCC4(C)C3CCC12C)C(C)C` (centres undefined), the TGI in the experiment with 786-0 renal, in the experiment with NCI-H23 lung, with T-47D breast, with HL-60(TB) leukemia, with KM12 colon and in the experiment on MCF7 breast was more than 100 µM each time. The same molecule gave a TGI in the experiment on COLO 205 colon of more than 100 µM.
In the case of `CC(=O)c1ccc(Nc2nc(Nc3ccc(F)cc3)nc(Nc3ccc(F)cc3)n2)cc1`, the GI50 in the experiment with 786-0 renal is 14.1 µM; in the experiment on NCI-H23 lung, 35.7 µM; in the experiment on T-47D breast it was 4.77 µM; in the experiment on KM12 colon it was 8.67 µM; with MCF7 breast it was 4.12 µM; with K-562 leukemia, 5.7 µM. Besides, in the experiment with COLO 205 colon, the GI50 is 5.61 µM. Also, the TGI with 786-0 renal was 32.5 µM; with NCI-H23 lung, more than 100 µM; in the experiment with T-47D breast it was 65.2 µM; in the experiment with KM12 colon, 97.9 µM; in the experiment with MCF7 breast, 61.2 µM; in the experiment on K-562 leukemia, more than 100 µM. The TGI with COLO 205 colon was 43.7 µM.
As for `NCCCn1c2c(c3ccc([N+](=O)[O-])cc3c1=O)C(=O)c1cc(-c3ccccc3)ccc1-2`, the GI50 in the experiment with 786-0 renal was 0.181 µM; in the experiment on NCI-H23 lung it was 1.29 µM; with HL-60(TB) leukemia it was 0.5 µM; in the experiment with KM12 colon, 0.291 µM; with MCF7 breast, 0.357 µM; in the experiment with K-562 leukemia it was 0.0443 µM. Moreover, the TGI in the experiment with 786-0 renal came out at 0.334 µM; in the experiment with NCI-H23 lung it was 2.88 µM; in the experiment on HL-60(TB) leukemia it was 1.3 µM; in the experiment with KM12 colon it was 0.818 µM; in the experiment on MCF7 breast it was 1.32 µM; in the experiment with K-562 leukemia, 0.185 µM.
